Data set [1] can be described thus: physchem.
Data set [2] can be described thus: in vitro. The note with it: SD, HW or BN, rat, plasma.
A short description of data set [3]: in vitro. The following applies: hepatocytes.
Data set [4] can be described thus: in vitro. The note with it: human.
Data set [5] is described as follows: physchem. The source holds these as a separate data set.
A short description of data set [6]: in vitro. The following applies: human, plasma, PPB.
The nature of data set [7]: physchem. The note with it: octan-1-ol/water, pH 7.4, LogD7.4.
A short description of data set [8]: physchem. The note with it: pH 7.4 buffer.
A short description of data set [9]: in vitro. The note with it: human, hepatocytes.

The structures appear in SMILES notation. Values after ≈ are worked out from the molar mass of the structure shown. Where only a bound is given, the exact number is not on record here.

One may read the pKa as the pH at which an ionisable group is half protonated. What is called fraction unbound is free concentration divided by total concentration. Low readings indicate little free substance, high ones much free substance. The hepatocyte CLint is the rate of metabolic loss divided by the concentration. In general, microsomal CLint refers to the capacity of the preparation to metabolise the compound, expressed as a volume cleared per time. A lower microsomal CLint goes with greater metabolic stability. Consider `Cc1nn(-c2ccccc2)c(NC(=O)NS(=O)(=O)c2ccc(Cl)cc2)c1C#N`, for which the pKa in data set [1] is 2.3. This molecule showed a fraction unbound at 5 h in data set [2] of 0.0175. In addition, the hepatocyte CLint in [3] was determined as 21.5 µL/min/1e6 cells. The molecule also came in with a microsomal CLint in [4] (microsomes) below 3 µL/min/mg.

`OCc1ccnc2c(O)cccc12`: the pKa in data set [1] worked out at 9.45; in data set [5], 4.64.

With `CN(C)C1CCc2c(ccc(O)c2O)C1` (stereo not drawn), the values for the pKa in data set [1] and in data set [5] were 8.85 and 10.5, respectively.

With `NC1CCc2c(ccc(O)c2O)C1` (stereo not drawn), the pKa in data set [1] was 8.9; in data set [5] it was 10.5.

On to `O=C(O)COc1ccc(Cl)cc1CN1CCCN(S(=O)(=O)Cc2ccccc2)CC1`, for which the pKa in [1] was determined as 3.4; in [5], 8.3. In addition, the fraction unbound at 5 h in data set [6] was 0.157.

Usually logD stands for lipophilicity at a set pH, counting ionised and neutral species. Higher therefore signals higher lipophilicity. In data set [1], `CCC(CC)NC(=O)c1nnn(-c2ccccc2)c1NS(=O)(=O)c1ccc(C)cc1` came in with a pKa of 3.3. The molecule also registered a hepatocyte CLint in [3] of 56 µL/min/1e6 cells. In [7], this molecule displayed a logD of 0.46. Also, the fraction unbound at 5 h in data set [6] is 0.0072. Moreover, in [4] (liver microsomes), the microsomal CLint was found to be 35 µL/min/mg.

The thermodynamic solubility is solubility found after equilibrating the solid with the medium. With `CCC(CC)NC(=O)c1cn(-c2ccccc2)nc1NS(=O)(=O)c1ccc(C)cc1`, the pKa in data set [1] was 5.3. Also, the fraction unbound at 5 h in data set [2] is 0.0033; in data set [6], 0.0013. The molecule further came in with an intrinsic metabolic clearance (hepatocyte CLint) in [3] of 7 µL/min/1e6 cells. Also, in data set [7], the logD was 2.51. The molecule also displayed a thermodynamic solubility in data set [8] of 174 µM (≈ 74.1 µg/mL). The microsomal CLint in data set [4] (liver microsomes) is 9 µL/min/mg.

As for `Cc1ccc(S(=O)(=O)Nc2c(C(=O)N[C@@H](C)C(C)(C)C)c(C(F)(F)F)nn2-c2ccccc2)cc1`, the pKa in [1] worked out at 3.8. The fraction unbound at 5 h in data set [2] was 0.0097; in data set [6], 0.0043. This molecule came in with a hepatocyte CLint in data set [3] of 18.8 µL/min/1e6 cells. This molecule also had a microsomal CLint in data set [4] (liver microsomes) of 120 µL/min/mg.

Turning to `O=C(Nc1ccc(N2CCOCC2)c(F)c1)c1nnc(Nc2ccccc2F)o1`, the pKa in [1] is 8.61; in data set [5], 6.17. This molecule also showed a logD in data set [7] of 3.6. This molecule also had a solubility (thermodynamic) in data set [8] of 1.3 µM (≈ 0.522 µg/mL).

Turning to `Cc1ccc2c(c1)c(-c1ccnc3c(C(F)(F)F)cccc13)c(C)n2CC(=O)O`, the pKa in data set [1] came to 2.4; in [5] it was 3.5. In [7], this molecule returned a logD of 1.27. This molecule also showed a fraction unbound at 5 h in data set [6] of 0.0038.

Regarding `O=C(O)c1ccc(N2CCC(CN3CCC(Oc4ccc(Cl)c(Cl)c4)CC3)CC2)cc1`, the pKa in data set [1] worked out at 4.55; in data set [5], 8.85.

On to `O=C(O)Cc1cccc(N2CCC(CN3CCC(Oc4ccc(Cl)c(Cl)c4)CC3)CC2)c1`, for which the figures for the pKa in data set [1] and in [5] were 4.4 and 8.9, respectively.

Turning to `O=C(NS(=O)(=O)N1CCC(N2CCC(Oc3ccc(Cl)c(Cl)c3)CC2)CC1)c1ccccc1`, the pKa came out at 4.3 in data set [1] and 8.1 in data set [5]. Besides, in [7], the logD was determined as 2.14.

As to `N#Cc1ccc2[nH]c(-c3ccc(F)cc3)c(CCCC(=O)NS(N)(=O)=O)c2c1`, in data set [1], the pKa came to 5.9. In addition, in data set [3], the hepatocyte CLint stood at 19.6 µL/min/1e6 cells. The molecule also registered a logD in [7] of 1.95. The thermodynamic solubility in data set [8] turned out to be 26.9 µM (≈ 10.8 µg/mL). Moreover, the unbound share (fraction unbound) at 5 h in data set [6] was 0.0146. The microsomal CLint in data set [4] (liver microsomes) is below 3 µL/min/mg.

With `NC1CCc2cc(O)c(O)cc2C1` (stereo not drawn), the values for the pKa in [1] and in data set [5] were 9.1 and 10.5, respectively.

In the case of `Nc1nc(-c2ccccc2)cc(=O)[nH]1`, the pKa in [1] was 9.05; in [5] it was 3.45.

On to `NCC1CCC(C(=O)O)CC1` (stereo not drawn), for which the pKa in data set [1] came to 4.9; in data set [5], 10.

Regarding `NCC1Cc2c1ccc(O)c2O` (stereo not drawn), the pKa in data set [1] came to 10.4; in [5] it was 8.5.

On to `Cc1c(O)nc(N)nc1-c1ccccc1`, for which the pKa in data set [1] is 9.61; in data set [5], 4.37.

Molecule `CS(=O)(=O)NC(=O)CCCc1c(-c2ccc(F)cc2)[nH]c2ccc(C#N)cc12` returned a pKa in data set [1] of 5.2. Also, the hepatocyte CLint in [3] came to 14.3 µL/min/1e6 cells. In addition, the logD in data set [7] came out at 1.5. For the same molecule, in [6], the fraction unbound at 5 h was 0.013. Besides, the microsomal CLint in data set [4] (microsomes) is below 3 µL/min/mg.

Take `O=C(NCC12CC3CC(CC(C3)C1)C2)c1cc(-n2ncc(=O)[nH]c2=O)ccc1Cl`: the pKa in data set [1] was 6.2. The fraction unbound at 5 h in data set [2] is 0.0171. Moreover, the hepatocyte CLint in data set [3] was 15.3 µL/min/1e6 cells; in data set [9] it was 37 µL/min/1e6 cells. The molecule further registered a logD in data set [7] of 2.1. Moreover, the intrinsic clearance (microsomal CLint) in data set [4] (liver microsomes) was determined as 83.8 µL/min/mg.

Take `CCOC(=O)[C@H](CCc1ccccc1)N[C@@H](C)C(=O)N1CCC[C@H]1C(=O)O`: the pKa is 3.1 in data set [1] and 6.4 in [5].

In the case of `CCCN(CCC)C1CCc2c(O)cccc2C1` (stereo not drawn) [5-OH-DPAT], the pKa in data set [1] worked out at 9.25; in data set [5], 10.8.

On to `Nc1ncnc2c1ncn2CCOCP(=O)(O)O` [ADEFOVIR], for which the figures for the pKa in [1] and in data set [5] were 7.66 and 4.34, respectively.

Turning to `NC1CCN(c2c(F)cc3c(=O)c(C(=O)O)cn(C4CC4)c3c2Cl)C1` (stereo not drawn) [CLINAFLOXACIN], the figures for the pKa in data set [1] and in data set [5] were 5.77 and 9.1, respectively.

Consider `CNCCc1ccc(O)c(O)c1` [DEOXIEPINEPHRINE], for which the pKa in [1] was determined as 8.97; in data set [5], 10.9.

Molecule `CCc1cccc2c3c([nH]c12)C(CC)(CC(=O)O)OCC3` (stereo not drawn) [ETODOLAC] displayed a pKa in data set [1] of 4.15. In data set [9], this molecule had an intrinsic metabolic clearance (hepatocyte CLint) of 12.9 µL/min/1e6 cells.

On to `CN1CCN(c2c(F)cc3c(=O)c(C(=O)O)cn(CCF)c3c2F)CC1` [FLEROXACIN], for which the values for the pKa in [1] and in [5] were 5.6 and 7.91, respectively.

In the case of `COc1c(N2CCNC(C)C2)c(F)cc2c(=O)c(C(=O)O)cn(C3CC3)c12` (stereo not drawn) [GATIFLOXACIN], the pKa came to 6.05 in data set [1] and 9.18 in data set [5]. Also, the logD in data set [7] was -0.82.

As to `CO/N=C1\CN(c2nc3c(cc2F)c(=O)c(C(=O)O)cn3C2CC2)CC1CN` (stereo not drawn) [GEMIFLOXACIN], the pKa in data set [1] amounted to 6.36; in [5], 8.6.

For the molecule `CCn1cc(C(=O)O)c(=O)c2cc(F)c(N3CCNC(C)C3)c(F)c21` (stereo not drawn) [LOMEFLOXACIN], the figures for the pKa in data set [1] and in [5] were 5.82 and 8.87, respectively. Further, in data set [7], the logD is -1.1.

Consider `COc1c(C)c2c(c(O)c1C/C=C(\C)CCC(=O)OCCN1CCOCC1)C(=O)OC2` [MYCOPHENOLATE MOFETIL], for which the pKa in [1] was 8.01; in [5] it was 6.06. Moreover, in data set [7], the logD turned out to be 2.26. The molecule also gave a solubility (thermodynamic) in [8] of 87.1 µM (≈ 37.8 µg/mL).

As to `CCCc1nc(C(C)(C)O)c(C(=O)OCc2oc(=O)oc2C)n1Cc1ccc(-c2ccccc2-c2nnn[nH]2)cc1` [OLMESARTAN MEDOXOMIL], the pKa in data set [1] stood at 4.29; in [5], 6.05.

In the case of `Nc1nc2c(ncn2CCC(CO)CO)c(=O)[nH]1` [PENCICLOVIR], the pKa in [1] was 9.48; in data set [5] it was 2.97.

In data set [1], `CC(C)(C)c1cc(NC(=O)NCc2ccccc2Sc2ccc3nnc(-c4ccccc4SCCO)n3c2)n(-c2ccc(O)c(Cl)c2)n1` [PF-03715455] showed a pKa of 7.17. In data set [2], the fraction unbound at 5 h is 0.0013. The hepatocyte CLint in [3] was found to be 70.8 µL/min/1e6 cells; in [9], 25.1 µL/min/1e6 cells. In data set [4] (liver microsomes), this molecule had a microsomal CLint above 150 µL/min/mg.

Consider `COC(=O)c1cc2nc([S+]([O-])Cc3ncccc3C)[nH]c2cc1C` (stereo not drawn) [PICOPRAZOLE], for which the pKa in data set [1] came out at 8.1; in data set [5], 3.5.

Regarding `CCCN(CCC)CCc1ccc(O)c2c1CC(=O)N2` [SKF-89124A], the values for the pKa in [1] and in [5] were 8.35 and 10.2, respectively.

Turning to `[O-][S+](Cc1ccccn1)c1nc2ccccc2[nH]1` (stereo not drawn) [TIMOPRAZOLE], the pKa in [1] was 8.8; in data set [5] it was 3.1.

The values above are taken from ChEMBL document CHEMBL3301361, “Experimental in vitro DMPK and physicochemical data on a set of publicly disclosed compounds”.
